Source: patent US20040121941A1, “Novel inhibitors of prenylated pyrophosphate consuming enzymes” (priority 1999, published 2004)

Biological target: T1, protein:geranylgeranyl transferase-1 (PGGT-1) (Bos taurus, UniProt Q5EAD5)
T1 construct: A crude PGGT-1 preparation was isolated from bovine brain; from tissue; host or cells: bovine brain
Experiment: Protein:geranylgeranyl transferase-1 (PGGT-1) activity assay, [3H]-GGPP and sepharose-coupled peptide pepCsep
Assay type: biochemical
Conditions: PGGT activity in % of control (without analogue), bovine brain enzyme, Table I
Method: PFT activity was determined using a C-terminal peptide of pre-p21^N-ras coupled to sepharose beads as substrate (pepAsep) as described previously (Cohen et al. Biochem. Pharmacol. 57 (1999), 365-373). The experimental conditions (25 μL reaction mixture) were as follows: 80 pmol/25 μL sepharose-coupled peptide, 0.7 μM of [^3H]-FPP (American Radiolabeled Chemicals Inc.; specific radioactivity 15 Ci/mmol) and 13 μL of rat brain enzyme preparation. Incubation was performed at 37° C. for 30 min. For the determination of IC50 values of the FPP analogues, the assay was performed three times in the presence of different concentrations of compound 5 (example 1) in duplicate. Determination of PGGT-1 activity was performed in a similar manner as described for PFT activity and has also been described previously (Cohen et al. Biochem. Pharmacol. 57 (1999), 365-373). […] The experimental conditions were as follows: 25 μL incubation mixture contained 2.5 μL (1 nmol) pepCsep, 1 μM [^3H]-GGPP (American Radiolabeled Chemicals Inc.; specific radioactivity 15 Ci/mmol), 3 μL of bovine brain enzyme preparation, 50 μM ZnCl2, 0.5 mM MgCl2, 1 mM dithiothreitol, 0.004% Triton X-100, 50 mM Tris-HCl (pH 7.4). […]
The radioactivity bound to the sepharose was strongly dependent on the presence of the cysteine residue in pepCsep and the reaction was linear up to 40 min and up to 5 μL of the enzyme preparation. […]

[Bis(benzyloxycarbonyl)lysyl]-[ε-aminocaproyl]-[β-(nitrophenylaminocarbonyl)-β-alanyl]-[phosphoserine] [compound 378]
relative activity at 10 μM (compound at 10 μM): 36 ± 9%
relative activity at 100 μM (compound at 100 μM): 28 ± 5%
